# Measurements reported in patent publication US20050245461A1, “Methods for treating alcoholism” (priority 2004, published 2005).
# “Also recorded” adds a separate entry of the source. Where two headings read alike, the source gives them in different places.
# Tests used:
# [1] = system: ethanol drinking (lever presses for ethanol cocktail); assay: rat model of alcohol self-administration (operant lever pressing for 10% ethanol cocktail); conditions: for effect on naltrexone's ability to decrease drinking when coadministered: coadministered with naltrexone, conclusion of Example 1; for ED50: Rattus norvegicus; for Lever Presses (Mean ± SEM): 30 min session
# Protocol: Male Wistar rats (starting weight of 200±30 grams; Charles River Laboratories, MA) were individually housed with free access to food and water. […] These conditions were recorded once daily throughout the study.
# Animals were trained daily in an operant chamber to press a lever to receive access to an ethanol cocktail as a reinforcer using a saccharin fading procedure. […] The final ethanol cocktail contained 10% ethanol in 0.04% saccharine. Each session lasted 30 minutes, during which the rat could press the lever twice to gain access to 0.1 mL of the ethanol cocktail. The operant chamber (Coulbourn Instruments, Allentown, Pa.) is a computer-controlled automated system which recorded the number of lever presses completed by a rat. At the end of the training period (6-8 weeks), rats which consistently drank a sufficient quantity of ethanol to produce a pharmacological effect (minimum intake of 0.6 g/kg/hour) were selected to participate in the drug studies. These trained rats were used repeatedly throughout these studies to control for intra-subject variability. All drugs were administered acutely with a minimum of a 2 day drug washout period.
# Naltrexone was prepared daily in 0.9% saline and administered subcutaneously (SC). The anticonvulsants (gabapentin, carbamazepine, levetiracetam and lamotrigine) were suspended in 3% carboxymethyl cellulose; a total volume of 1 mL/kg of this suspension was delivered orally (PO) to the rat using a gavage tube.
# The ability of naltrexone to reduce ethanol drinking (i.e., decrease the number of lever presses) was assessed in this animal model of self administration of ethanol. […] The total number of lever presses was recorded over the 30 minute test session. […] An anticonvulsant (gabapentin, carbamazepine, levetiracetam or lamotrigine) was coadministered with naltrexone to determine if it affected naltrexone's ability to decrease ethanol drinking. […] This dose allows one to determine if the co-administered drugs impaired or enhanced naltrexone's effect on ethanol drinking. The anticonvulsants were administered orally 30 minutes prior to a naltrexone injection (SC) (i.e., 60 minutes prior to the beginning of the ethanol drinking test session). The number of lever presses for the ethanol cocktail was recorded at the end of the 30 minute session.
# alcohol withdrawal = conditions: literature (Myrick 1998; Karam-Hage 2000; Minuk 1995); cited from earlier work
# [2] = system: audiogenic-induced convulsions; assay: audiogenic-induced convulsions in mouse model of alcohol withdrawal
# Protocol: These conditions were recorded once daily throughout the study.
# Alcohol is provided in a nutritionally balanced liquid diet.
# [3] = pharmacokinetic study: naltrexone in plasma alone or coadministered with gabapentin; assay type: in vivo, rat; conditions: vehicle+naltrexone vs gabapentin+naltrexone (gabapentin 1 mg/kg, naltrexone 0.5 mg/kg), rats
# Protocol: FIG. 3C is a line graph showing the amount of naltrexone in the plasma over a period of time for naltrexone administered alone or naltrexone coadministered with gabapentin.
# To determine if this drug interaction might be effective in decreasing ethanol drinking with lower doses of naltrexone, the dose of gabapentin (1 mg/kg) was kept constant and the dose of naltrexone varied from 0.05 to 3.0 mg/kg (FIG. 3B). […] To determine if gabapentin may be altering the plasma profile of naltrexone at this dose combination, a pharmacokinetic study was run in a separate cohort group of rats.
# [4] = anticonvulsant 0.1 mg/kg PO + naltrexone 0.1 mg/kg SC
# [5] = anticonvulsant 1.0 mg/kg PO + naltrexone 0.1 mg/kg SC
# [6] = anticonvulsant 10.0 mg/kg PO + naltrexone 0.1 mg/kg SC
molecule,measurement,setting,value
1-(aminomethyl)cyclohexane acetic acid [Gabapentin],effect on naltrexone's ability to decrease drinking when coadministered,[1],did not impair or block
same,enhancement of naltrexone's effect on alcohol drinking,"[1]; coadministration of gabapentin, narrow therapeutic window",enhanced naltrexone's effects of alcohol drinking
same,"ethanol drinking, combination compared to naltrexone alone","[1]; gabapentin 1 mg/kg PO plus naltrexone 0.5 mg/kg SC, p<0.006",further significant decrease
same,"difference in number of lever presses, naltrexone alone vs combined with gabapentin","[1]; gabapentin 1 mg/kg constant, naltrexone 0.05 to 3.0 mg/kg, except at 0.5 mg/kg naltrexone",No differences
same,potentiation of naltrexone's decrease in ethanol drinking,[1]; gabapentin 0.1 and 10.0 mg/kg coadministered with naltrexone 0.5 mg/kg,not seen
same,effect on lever pressing for ethanol compared to non-drug treated conditions,"[1]; gabapentin alone, 1 or 10 mg/kg",neither gabapentin at 1 or 10 mg/kg alone had any effect
same,safety and efficacy as alternatives to benzodiazepines for the treatment of alcohol withdrawal,alcohol withdrawal,safe and efficacious
"CC[C@@H](C(N)=O)N1CCCC1=O (single isomer, unassigned) [Levetiracetam]",Number of Lever Presses (mean ± sem),[1]; anticonvulsant 1.0 mg/kg PO + naltrexone 0.5 mg/kg SC,34 ± 11
same,Number of Lever Presses (mean ± sem),[1]; anticonvulsant 10.0 mg/kg PO + naltrexone 0.5 mg/kg SC,36 ± 8
same,Number of Lever Presses (mean ± sem),[1]; anticonvulsant 100.0 mg/kg PO + naltrexone 0.5 mg/kg SC,34 ± 9
same,effect on naltrexone's ability to decrease drinking when coadministered,[1],did not impair or block
same,"difference between naltrexone (with vehicle) and combination with naltrexone, lever presses",[1]; levetiracetam 1-100 mg/kg PO + naltrexone 0.5 mg/kg SC,no significant differences
"NC(=O)N1c2ccccc2C=Cc2ccccc21 [Carbamazepine, 5H-dibenz [b,f] azepine-5-carboxamide]",Number of Lever Presses (mean ± sem),[1]; [4],68 ± 10
same,Number of Lever Presses (mean ± sem),[1]; [5],49 ± 8
same,Number of Lever Presses (mean ± sem),[1]; [6],48 ± 9
same,effect of combination with naltrexone on ethanol drinking,[1]; carbamazepine 0.1-10.0 mg/kg PO + naltrexone 0.1 mg/kg,did not significantly affect
same,effect on naltrexone's ability to decrease drinking when coadministered,[1],did not impair or block
same,"Withdrawal Rating (mean ± sem), behavioral response scale of 1-4",[2]; carbamazepine 10 mg/kg PO + saline,1.1 ± 0.1
same,difference between drug groups on the audiogenic convulsion test,"[2]; carbamazepine 10 mg/kg with/without naltrexone 3 mg/kg, p=0.18",no statistical differences
"Nc1nnc(-c2cccc(Cl)c2Cl)c(N)n1 [Lamotrigine, 6-(2,3-dichlorophenyl)-1,2,4-trizine-3,5-diamine]",Number of Lever Presses (mean ± sem),[1]; [4],61 ± 13
same,Number of Lever Presses (mean ± sem),[1]; [5],60 ± 13
same,Number of Lever Presses (mean ± sem),[1]; [6],567 ± 10
same,effect on naltrexone's ability to decrease drinking when coadministered,[1],did not impair or block
same,effect of combination with naltrexone on number of lever presses for ethanol,[1]; lamotrigine 0.1-10 mg/kg PO + naltrexone 0.1 mg/kg SC,did not significantly affect
O=C1CC[C@@]2(O)[C@H]3Cc4ccc(O)c5c4[C@@]2(CCN3CC2CC2)[C@H]1O5 [Naltrexone],ED50,[1]; read-out: ED50 re-established,0.1 mg/kg
same,ED50,"[1]; sc, read-out: ED50 (dose reducing lever responding for ethanol by approximately 50% compared to baseline)",0.5 mg/kg
same,ED50,"[1]; sc, read-out: ED50 for decrease in number of lever presses",0.1 to 0.5 mg/kg
same,decrease in lever presses vs baseline and vehicle control,"[1]; lowest dose of naltrexone tested, 0.05 mg/kg",no significant decrease
same,dose dependence of decrease in number of lever presses,[1]; naltrexone 0-6 mg/kg SC,dose-dependent decrease
same,Approximate Absolute Ethanol Consumed,[1]; naltrexone 0.05 mg/kg SC,~1.0 g/kg
same,Lever Presses (Mean ± SEM),[1]; naltrexone 0.05 mg/kg SC,132 ± 13.3
same,Approximate Absolute Ethanol Consumed,[1]; naltrexone 0.1 mg/kg SC,~0.7 g/kg
same,Lever Presses (Mean ± SEM),[1]; naltrexone 0.1 mg/kg SC,88 ± 8.6
same,decrease in number of lever presses from the baseline,"[1]; naltrexone 0.1 mg/kg, carbamazepine study",42.4%
same,Approximate Absolute Ethanol Consumed,[1]; naltrexone 0.5 mg/kg SC,~0.6 g/kg
same,Lever Presses (Mean ± SEM),[1]; naltrexone 0.5 mg/kg SC,83 ± 12.1
same,decrease in lever responding for ethanol compared to non-drug baseline,"[1]; naltrexone 0.5 mg/kg SC, levetiracetam study",65%
same,specificity of decrease in drinking for ethanol versus saccharine,"[1]; naltrexone 0.5 mg/kg SC, 0.1% saccharine solution substituted for ethanol cocktail",specific for ethanol; also recorded: selective for decreasing ethanol drinking
same,Approximate Absolute Ethanol Consumed,[1]; naltrexone 1.0 mg/kg SC,~0.3 g/kg
same,Lever Presses (Mean ± SEM),[1]; naltrexone 1.0 mg/kg SC,43 ± 8.6
same,Approximate Absolute Ethanol Consumed,[1]; naltrexone 3.0 mg/kg SC,~0.2 g/kg
same,Lever Presses (Mean ± SEM),[1]; naltrexone 3.0 mg/kg SC,24 ± 8.1
same,Approximate Absolute Ethanol Consumed,[1]; naltrexone 6.0 mg/kg SC,~0.2 g/kg
same,Lever Presses (Mean ± SEM),[1]; naltrexone 6.0 mg/kg SC,21 ± 5.5
same,effect on decreasing ethanol drinking at higher doses,[1]; naltrexone 3 and 6 mg/kg,appeared to plateau
same,decrease in number of lever presses for ethanol compared to non-drug baseline,"[1]; naltrexone ED50 dose (0.5 mg/kg), gabapentin study",54%
same,reduction in lever pressing for ethanol,"[1]; naltrexone alone 0.5 mg/kg, additional testing, most of the animals",greater than 50%
same,decrease in lever responding for ethanol compared to non-drug baseline,"[1]; naltrexone alone (0.1 mg/kg SC), lamotrigine study",49%
same,Number of Lever Presses (mean ± sem),"[1]; vehicle (drug dose 0.0) PO + naltrexone 0.1 mg/kg SC, carbamazepine study",67 ± 17
same,Number of Lever Presses (mean ± sem),"[1]; vehicle (drug dose 0.0) PO + naltrexone 0.1 mg/kg SC, lamotrigine study",74 ± 18
same,Number of Lever Presses (mean ± sem),"[1]; vehicle (drug dose 0.0) PO + naltrexone 0.5 mg/kg SC, levetiracetam study",50 ± 10
same,"plasma profile of naltrexone, difference between treatment groups",[3],no statistical difference
same,exacerbation of audiogenic-induced convulsions,"[2]; naltrexone 3 mg/kg with carbamazepine 10 mg/kg, mice with alcohol withdrawal symptoms",did not exacerbate
same,interaction with carbamazepine's anticonvulsant activity,"[2]; naltrexone 3 mg/kg, carbamazepine 10 mg/kg",did not appear to interact
"CCCC(CCC)C(=O)O [valproic acid, 2-propylpentanoic acid]",safety and efficacy as alternatives to benzodiazepines for the treatment of alcohol withdrawal,alcohol withdrawal,safe and efficacious
